# According to patent publication US11028090B2 (Dong Wha Pharm. Co., Ltd., priority 2017, dated 2021):
# Like-named read-outs stand apart in the source and are kept apart here.
# Tests used:
# [1] = molecular target: BRD4 (BD1+BD2) bromodomain (Homo sapiens (Human), UniProt O60885); assay: BRD4 binding inhibition (AlphaScreen, GST-BRD4 vs tetraacetylated histone H4 peptide)
# Outline: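 GST-BRD4 (BD1+BD2) and biotinylated tetraacetyl-histone H4 peptide, each at 100 nM in HEPES pH 7.4 buffer with BSA and DTT, were combined with compound. Glutathione acceptor and streptavidin donor beads were added, then incubated 30 min at room temperature in the dark. Read-out was AlphaScreen signal.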
# [2] = test system: thymus cancer cells (Ty-82 cells); assay: Cytotoxicity to thymus cancer cells (Ty-82 cells), WST-1; conditions: Homo sapiens, TY82, 72 h
# Procedure: The following experiment was performed to evaluate the cytotoxicity of [1,2,4]triazolo[4,3-a]quinoxaline derivative according to the present invention to thymus cancer cells (Ty-82 cells).
# First, thymus cancer cells (Ty-82 cells) were distributed in a 96 well plate at the density of 2.5×10^4 cells/well. 24 hours later, the plated cells were treated with the compounds of the present invention dissolved in DMSO at the different concentrations ranging from 0.01 μM to 10 μM. 72 hours later, the activities of the compounds were determined using WST-1 reagent.
# [3] = test system: acute myelogenous leukemia cells (MV-4-11 cells); assay: Cytotoxicity to acute myelogenous leukemia cells (MV-4-11 cells), CCK-8
# [4] = GST-BRD4 (BD1+BD2) / biotinylated acetyl-histone H4 (Lys5,8,12,16) peptide, read-out: IC50, BRD4 binding inhibition
# [5] = GST-BRD4 (BD1+BD2) vs biotinylated acetyl-histone H4 peptide, AlphaScreen, read-out: BRD4 IC50
# [6] = read-out: Ty-82 Cytotoxicity IC50
# [7] = Homo sapiens, MV4-11, 72 h, read-out: MV-4-11 Cytotoxicity IC50
# [8] = Homo sapiens, MV4-11, 72 h, read-out: IC50, cytotoxicity against acute myelogenous leukemia cells
"IC50 [1, 4]","IC50 [1, 5]",Compound,"IC50 [2, 6]","IC50 ([2]; read-out: IC50, cytotoxicity against thymus cancer cells)","IC50 [3, 7]","IC50 [3, 8]","IC50 ([3]; read-out: IC50, cytotoxicity against acute myelogenous leukemia cells, MV-4-11 cells, 72 hours, CCK-8)","IC50 ([3]; read-out: MV-4-11 Cytotoxicity IC50, MV-4-11 cells, 72 hours, CCK-8)"
≤ 50 nM,28 nM,"Cc1nnc2c(NCCCCNC(=O)C(C)(C)C)nc3ccccc3n12 [Example 3, 2,2-dimethyl-N-[4-(1-methyl-[1,2,4]triazolo[4,3-a]quinoxaline-4-ylamino)-butyl]-propionamide]",920 nM,–,–,–,–,–
≤ 50 nM,–,"Cc1nnc2c(NCCCCNC(=O)OC(C)C)nc3ccccc3n12 [Example 4, [4-(1-methyl-[1,2,4]triazolo[4,3-a]quinoxaline-4-ylamino)-butyl]-carbamic acid isopropylester]",650 nM,–,–,–,–,–
≤ 50 nM,20 nM,"Cc1nnc2c(NCCCCNC(=O)CC(C)C)nc3ccccc3n12 [Example 7, 3-methyl-N-[4-(1-methyl-[1,2,4]triazolo[4,3-a]quinoxaline-4-ylamino)-butyl]-butyramide]",260 nM,≤ 500 nM,–,–,–,–
≤ 50 nM,24 nM,"Cc1nnc2c(NCCCCNC(=O)CC(C)(C)C)nc3ccccc3n12 [Example 8, 3,3-dimethyl-N-[4-(1-methyl-[1,2,4]triazolo[4,3-a]quinoxaline-4-ylamino)-butyl]-butyramide]",860 nM,–,–,–,–,–
–,58 nM,Cc1nnc2c(NCCCCNC(=O)c3ccccc3Cl)nc3ccccc3n12 [Example 12],850 nM,–,–,–,–,–
–,51 nM,"COc1cc2nc(NCCCCNC(=O)c3ccc([N+](=O)[O-])cc3)c3nnc(C)n3c2cc1OC [Example 101, N-[4-(7,8-dimethoxy-1-methyl-[1,2,4]triazolo[4,3-a]quinoxaline-4-ylamino)-butyl]-4-nitro-benzamide]",880 nM,–,–,–,–,–
≤ 50 nM,34 nM,"COc1cccc2c1nc(NCCCCNC(=O)OCC(C)C)c1nnc(C)n12 [Example 120, N-[4-(6-methoxy-1-methyl-[1,2,4]triazolo[4,3-a]quinoxaline-4-ylamino)-butyl]-carbamic acid isobutylester]",620 nM,–,–,–,–,–
≤ 10 nM,5 nM,"Cc1noc(C)c1-c1ccc2c(c1)nc(NCCCCNC(=O)CC(C)C)c1nnc(C)n12 [Example 585, N-{4-[7-(3,5-dimethyl-isoxazol-4-yl)-1-methyl-[1,2,4]triazolo[4,3-a]quinoxaline-4-ylamino]-butyl}-3-methyl-butyramide]",–,–,280 nM,–,–,–
≤ 50 nM,29 nM,"COc1ccc2c(c1)nc(NCCCCNC(=O)CC(C)C)c1nnc(C(F)(F)F)n12 [Example 590, N-[4-(7-methoxy-1-trifluoromethyl-[1,2,4]triazolo[4,3-a]quinoxaline-4-ylamino)-butyl]-3-methyl-butyramide]",–,–,490 nM,–,–,–
≤ 50 nM,28 nM,"CCC(C)CC(=O)NCCCCNc1nc2cc(OC)ccc2n2c(C(F)(F)F)nnc12 (stereo not drawn) [Example 591, 3-methyl-pentanoic acid-[4-(7-methoxy-1-trifluoromethyl-[1,2,4]triazolo[4,3-a]quinoxaline-4-ylamino)-butyl]-amide]",–,–,880 nM,–,–,–
–,76 nM,"CCc1nnc2c(NCCCCNC(=O)OC(C)(C)C)nc3cc(OC)c(OC)cc3n12 [Example 594, [4-(1-ethyl-7,8-dimethoxy-[1,2,4]triazolo[4,3-a]quinoxaline-4-ylamino)-butyl]-carbamic acid-tert-butylester]",–,–,880 nM,–,–,–
≤ 50 nM,19 nM,"CCc1nnc2c(NCCCCNC(=O)OC(C)C)nc3cc(OC)c(OC)cc3n12 [Example 596, [4-(1-ethyl-7,8-dimethoxy-[1,2,4]triazolo[4,3-a]quinoxaline-4-ylamino)-butyl]-carbamic acid isopropylester]",–,–,510 nM,–,–,–
≤ 50 nM,18 nM,"CCc1nnc2c(NCCCCNC(=O)CC(C)C)nc3cc(OC)c(OC)cc3n12 [Example 597, N-[4-(1-ethyl-7,8-dimethoxy-[1,2,4]triazolo[4,3-a]quinoxaline-4-ylamino)-butyl]-3-methyl-butyramide]",–,–,230 nM,–,–,–
≤ 50 nM,18 nM,"CCc1nnc2c(NCCCCNC(=O)OCC(C)C)nc3cc(OC)c(OC)cc3n12 [Example 598, [4-(1-ethyl-7,8-dimethoxy-[1,2,4]triazolo[4,3-a]quinoxaline-4-ylamino)-butyl]-carbamic acid isobutylester]",–,–,290 nM,–,–,–
–,56 nM,"COc1cc2nc(NCCCCNC(=O)OC(C)C)c3nnc(C(C)C)n3c2cc1OC [Example 601, [4-(1-isopropyl-7,8-dimethoxy-[1,2,4]triazolo[4,3-a]quinoxaline-4-ylamino)-butyl]-carbamic acid isopropylester]",–,–,230 nM,–,–,–
–,58 nM,"COc1cc2nc(NCCCCNC(=O)OCC(C)C)c3nnc(C(C)C)n3c2cc1OC [Example 602, [4-(1-isopropyl-7,8-dimethoxy-[1,2,4]triazolo[4,3-a]quinoxaline-4-ylamino)-butyl]-carbamic acid isobutylester]",–,–,290 nM,–,–,–
≤ 50 nM,16 nM,"CCc1nnc2c(NCCCCNC(=O)OC(C)(C)C)nc3cc(OC)ccc3n12 [Example 620, [4-(7-methoxy-1-ethyl-[1,2,4]triazolo[4,3-a]quinoxaline-4-ylamino)-butyl]-carbamic acid-tert-butylester]",–,–,700 nM,–,–,–
≤ 50 nM,5 nM,"CCc1nnc2c(NCCCCNC(=O)OC(C)C)nc3cc(OC)ccc3n12 [Example 623, [4-(7-methoxy-1-ethyl-[1,2,4]triazolo[4,3-a]quinoxaline-4-ylamino)-butyl]-carbamic acid isopropylester]",–,–,400 nM,–,–,–
≤ 50 nM,16 nM,"CCc1nnc2c(NCCCCNC(=O)OCC(C)C)nc3cc(OC)ccc3n12 [Example 624, [4-(7-methoxy-1-ethyl-[l,2,4]triazolo[4,3-a]quinoxaline-4-ylamino)-butyl]-carbamic acid isobutylester]",–,–,410 nM,–,–,–
≤ 50 nM,27 nM,"COc1cc2nc(NCCCCC(=O)NCC(C)C)c3nnc(C)n3c2cc1OC [Example 648, 5-(7,8-dimethoxy-1-methyl-[1,2,4]triazolo[4,3-a]quinoxaline-4-ylamino)-pentanoic acid-isobutylamide]",–,–,130 nM,≤ 200 nM,–,–
≤ 50 nM,23 nM,"CCC(C)CNC(=O)CCCCNc1nc2cc(OC)c(OC)cc2n2c(C)nnc12 (stereo not drawn) [Example 649, 5-(7,8-dimethoxy-1-methyl-[1,2,4]triazolo[4,3-a]quinoxaline-4-ylamino)-pentanoic acid-(2-methyl-butyl)-amide]",–,–,160 nM,≤ 200 nM,–,–
≤ 50 nM,18 nM,"COc1cc2nc(NCCCCC(=O)NCc3ccco3)c3nnc(C)n3c2cc1OC [Example 650, 5-(7,8-dimethoxy-1-methyl-[1,2,4]triazolo[4,3-a]quinoxaline-4-ylamino)-pentanoic acid-(furan-2-ylmethyl)-amide]",–,–,220 nM,–,–,–
≤ 50 nM,23 nM,"COc1cc2nc(NCCCCC(=O)NCc3ccccc3)c3nnc(C)n3c2cc1OC [Example 651, 5-(7,8-dimethoxy-1-methyl-[1,2,4]triazolo[4,3-a]quinoxaline-4-ylamino)-pentanoic acid-benzylamide]",–,–,120 nM,≤ 200 nM,–,–
≤ 50 nM,27 nM,"COc1cc2nc(NCCCCC(=O)NCc3ccc[nH]3)c3nnc(C)n3c2cc1OC [Example 652, 5-(7,8-dimethoxy-1-methyl-[1,2,4]triazolo[4,3-a]quinoxaline-4-ylamino)-pentanoic acid-(1H-pyrrole-2-ylmethyl)-amide]",–,–,200 nM,≤ 200 nM,–,–
≤ 50 nM,11 nM,"COc1ccc2c(c1)nc(NCCCCC(=O)NC(C)C)c1nnc(C)n12 [Example 654, 5-(7-methoxy-1-methyl-[1,2,4]triazolo[4,3-a]quinoxaline-4-ylamino)-pentanoic acid isopropylamide]",–,–,270 nM,–,–,–
≤ 50 nM,11 nM,"COc1ccc2c(c1)nc(NCCCCC(=O)NCC(C)C)c1nnc(C)n12 [Example 655, 5-(7-methoxy-1-methyl-[1,2,4]triazolo[4,3-a]quinoxaline-4-ylamino)-pentanoic acid isobutylamide]",–,–,80 nM,≤ 200 nM,–,–
≤ 50 nM,12 nM,"CCC(C)CNC(=O)CCCCNc1nc2cc(OC)ccc2n2c(C)nnc12 (stereo not drawn) [Example 656, 5-(7-methoxy-1-methyl-[1,2,4]triazolo[4,3-a]quinoxaline-4-ylamino)-pentanoic acid-(2-methyl-butyl)-amide]",–,–,150 nM,≤ 200 nM,–,–
≤ 50 nM,16 nM,COc1ccc2c(c1)nc(NCCCCC(=O)NCc1ccco1)c1nnc(C)n12 [Example 657],–,–,80 nM,≤ 200 nM,–,–

Compound,"IC50 [1, 4]","IC50 [1, 5]","IC50 [2, 6]","IC50 ([2]; read-out: IC50, cytotoxicity against thymus cancer cells)","IC50 [3, 7]","IC50 [3, 8]","IC50 ([3]; read-out: IC50, cytotoxicity against acute myelogenous leukemia cells, MV-4-11 cells, 72 hours, CCK-8)","IC50 ([3]; read-out: MV-4-11 Cytotoxicity IC50, MV-4-11 cells, 72 hours, CCK-8)"
"benzoic acid 1-methyl-4-[4-(3-methyl-butylamino)-butylamino]-[1,2,4]triazolo[4,3-a]quinoxaline-7-yl ester [Example 350]",≤ 50 nM,33 nM,–,–,–,–,≤ 200 nM,71 nM
